{"source": "patent US20230312616A1", "about": "“MODULATORS OF CYSTIC FIBROSIS TRANSMEMBRANE CONDUCTANCE REGULATOR” (priority 2018, published 2023)"}
{"system": "CFTR", "assay": "CFTR modulating activity, generated using one or more of the assays disclosed (e.g. membrane potential dye assay in enteroid cells)", "format": "cell-based, human", "conditions": "one or more of the assays disclosed herein; qualitative (Active / ND)", "from_the_text": "Human intestinal epithelial enteroid cells may be obtained from the Hubrecht Institute for Developmental Biology and Stem Cell Research, Utrecht, The Netherlands and expanded in T-Flasks as previously described (Dekkers JF, Wiegerinck CL, de Jonge HR, Bronsveld I, Janssens HM, de Winter-de Groot KM, Brandsma AM, de Jong NWM, Bijvelds MJC, Scholte BJ, Nieuwenhuis EES, van den Brink S, Clevers H, van der Ent CK, Middendorp S and M Beekman JM. A functional CFTR assay using primary cystic fibrosis intestinal organoids. Nat Med. 2013 Jul;19(7):939-45.).\nCells may be recovered in cell recovery solution, collected by centrifugation at 650 rpm for 5 min at 4° C., resuspended in TryPLE and incubated for 5 min at 37° C. Cells can then be collected by centrifugation at 650 rpm for 5 min at 4° C. and resuspended in IEMM containing 10 µM ROCK inhibitor (RI). The cell suspension is then passed through a 40 µm cell strainer and resuspended at 1x10^6 cells/mL in IEMM containing 10 µM RI. Cells may be seeded at 5000 cells/well into multi-well plates and incubated for overnight at 37° C., 95% humidity and 5% CO2 prior to assay.\nEnteroid cells may be incubated with test compound in IEMM for 18-24 hours at 37° C., 95% humidity and 5% CO2. Following compound incubations, a membrane potential dye assay can be employed using a FLIPR Tetra to directly measure the potency and efficacy of the test compound on CFTR-mediated chloride transport following acute addition of 10 µM forskolin and 300 nM N-[2,4-bis(1,1-dimethylethyl)-5-hydroxyphenyl]-1,4-dihydro-4-oxoquinoline-3-carboxamide. Briefly, cells aree washed 5 times in Bath 1 Buffer. Bath 1 Dye Solution is added and the cells are incubated for 25 min at room temperature. Following dye incubation, cells are washed 3 times in Chloride Free Dye Solution. Chloride transport is initiated by addition of Chloride Free Dye Stimulation Solution and the fluorescence signal is read for 15 min. The CFTR-mediated chloride transport for each condition may be determined from the AUC of the fluorescence response to acute forskolin and 300 nM N-[2,4-bis(1,1-dimethylethyl)-5-hydroxyphenyl]-1,4-dihydro-4-oxoquinoline-3-carboxamide stimulation.\nChloride transport may be expressed as a percentage of the chloride transport following treatment with one or more reference standards or positive controls. Suitable reference standards/controls include one or more of Compound II, Compound III, Compound IV, and Compound A. Compound A is:\nTable 6 confirms CFTR modulating activity for representative compounds of the invention generated using one or more of the assays disclosed herein."}
{"compound": "C[C@@H]1CN(c2nc(-n3ccc(OCCC4(C(F)(F)F)CC4)n3)ccc2C(=O)NS(=O)(=O)c2ccccc2)C(C)([Si](C)(C)C)C1", "note": "(single isomer, unassigned) [2-10 Isomer 2]", "CFTR Modulating Activity": "Active"}
{"compound": "CC1(C)CC([Si](C)(C)C)CN1c1nc(-n2ccc(OCCC3(C(F)(F)F)CC3)n2)ccc1C(=O)NS(=O)(=O)c1ccccc1", "note": "(single isomer, unassigned) [2-13 Enantiomer 1, N-(Benzenesulfonyl)-2-(2,2-dimethyl-4-trimethylsilyl-pyrrolidin-1-yl)-6-[3-[2-[1-(Trifluoromethyl)Cyclopropyl]Ethoxy]Pyrazol-1-yl]Pyridine-3-carboxamide]", "CFTR Modulating Activity": "Active"}
{"compound": "C[C@@H]1CN(c2nc(-n3ccc(OCCC4(C(F)(F)F)CC4)n3)c([Si](C)(C)C)cc2C(=O)NS(=O)(=O)c2ccccc2)C(C)(C)C1", "note": "[Compound 2-1, N-(Benzenesulfonyl)-6-[3-[2-[1-(Trifluoromethyl)Cyclopropyl]Ethoxy]Pyrazol-1-yl]-2-[(4S)-2,2,4-trimethylpyrrolidin-1-yl]-5-trimethylsilyl-pyridine-3-carboxamide]", "CFTR Modulating Activity": "Active"}
{"compound": "C[C@@H]1CN(c2nc([Si](C)(C)c3ccccc3)ccc2C(=O)NS(=O)(=O)c2ccccc2)C(C)(C)C1", "note": "[Compound 2-2, N-(Benzenesulfonyl)-6-[Dimethyl(Phenyl)Silyl]-2-[(4S)-2,2,4-trimethylpyrrolidin-1-yl]Pyridine-3-carboxamide]", "CFTR Modulating Activity": "Active"}
{"compound": "C[C@@H]1CN(c2nc([Si](C)(C)CCC(C)(C)C)ccc2C(=O)NS(=O)(=O)c2ccccc2)C(C)(C)C1", "note": "[Compound 2-3, N-(benzenesulfonyl)-6-[3,3-dimethylbutyl(dimethyl)silyl]-2-[(4S)-2,2,4-trimethylpyrrolidin-1-yl]pyridine-3-carboxamide]", "CFTR Modulating Activity": "Active"}
{"compound": "Cc1ccc([Si](C)(C)c2ccc(C(=O)NS(=O)(=O)c3ccccc3)c(N3C[C@@H](C)CC3(C)C)n2)cc1", "note": "[Compound 2-4, N-(Benzenesulfonyl)-6-[Dimethyl(p-tolyl)Silyl]-2-[(4S)-2,2,4-trimethylpyrrolidin-1-yl]pyridine-3-carboxamide]", "CFTR Modulating Activity": "Active"}
{"compound": "C[C@@H]1CN(c2nc(-n3ccc([Si](C)(C)CCC(C)(C)C)n3)ccc2C(=O)NS(=O)(=O)c2ccccc2)C(C)(C)C1", "note": "[Compound 2-5, N-(Benzenesulfonyl)-6-[3-[3,3-dimethylbutyl(Dimethyl)Silyl]Pyrazol-1-yl]-2-[(4S)-2,2,4-trimethylpyrrolidin-1-yl]Pyridine-3-carboxamide]", "CFTR Modulating Activity": "Active"}
{"compound": "C[C@@H]1CN(c2nc(-n3ccc(OCCC4([Si](C)(C)C)CC4)n3)ccc2C(=O)NS(=O)(=O)c2ccccc2)C(C)(C)C1", "note": "[Compound 2-6, N-(Benzenesulfonyl)-2-[(4S)-2,2,4-trimethylpyrrolidin-1-yl]-6-[3-[2-(1-trimethylsilylcyclopropyl)Ethoxy]Pyrazol-1-yl] Pyridine-3-carboxamide]", "CFTR Modulating Activity": "Active"}
{"compound": "C[C@@H]1CN(c2nc(-n3ccc(OCC[Si](C)(C)C)n3)ccc2C(=O)NS(=O)(=O)c2ccccc2)C(C)(C)C1", "note": "[Compound 2-7, N-(Benzenesulfonyl)-2-[(4S)-2,2,4-trimethylpyrrolidin-1-yl]-6-[3-(2-trimethylsilylethoxy)Pyrazol-1-yl]Pyridine-3-carboxamide]", "CFTR Modulating Activity": "Active"}
{"compound": "C[C@@H]1CN(c2nc([Si](C)(C)C)ccc2C(=O)NS(=O)(=O)c2ccccc2)C(C)(C)C1", "note": "[Compound 2-8, N-(Benzenesulfonyl)-2-[(4S)-2,2,4-trimethylpyrrolidin-1-yl]-6-trimethylsilyl-pyridine-3-carboxamide]", "CFTR Modulating Activity": "Active"}
{"compound": "C[C@@H]1CN(c2nc(-n3ccc(OCCC[Si](C)(C)C)n3)ccc2C(=O)NS(=O)(=O)c2ccccc2)C(C)(C)C1", "note": "[Compound 2-9, N-(Benzenesulfonyl)-2-[(4S)-2,2,4-trimethylpyrrolidin-1-yl]-6-[3-(3-trimethylsilylpropoxy)Pyrazol-1-yl]Pyridine-3-carboxamide]", "CFTR Modulating Activity": "Active"}
{"compound": "C[C@@H]1CN(c2nc(-n3ccc(OC[Si](C)(C)C)n3)ccc2C(=O)NS(=O)(=O)c2ccccc2)C(C)(C)C1", "note": "[Compound 2-11, N-(Benzenesulfonyl)-2-[(4S)-2,2,4-trimethylpyrrolidin-1-yl]-6-[3-(Trimethylsilylmethoxy)Pyrazol-1-yl]Pyridine-3-carboxamide]", "CFTR Modulating Activity": "Active"}
{"compound": "C[C@@H]1CN(c2nc(-n3ccc([Si](C)(C)CCC(F)(F)F)n3)ccc2C(=O)NS(=O)(=O)c2ccccc2)C(C)(C)C1", "note": "[Compound 2-12, N-(Benzenesulfonyl)-6-[3-[Dimethyl(3,3,3-trifluoropropyl)Silyl]Pyrazol-1-yl]-2-[(4S)-2,2,4-trimethylpyrrolidin-1-yl]Pyridine-3-carboxamide]", "CFTR Modulating Activity": "Active"}
{"compound": "C[C@@H]1CN(c2nc(-n3ccc([Si](C)(C)C(C)(C)C)n3)ccc2C(=O)NS(=O)(=O)c2ccccc2)C(C)(C)C1", "note": "[Compound 2-14, N-(benzenesulfonyl)-6-[3-[Tert-butyl(Dimethyl)Silyl]Pyrazol-1-yl]-2-[(4S)-2,2,4-trimethylpyrrolidin-1-yl]Pyridine-3-carboxamide]", "CFTR Modulating Activity": "Active"}
{"compound": "C[C@@H]1CN(c2nc(-n3ccc(OC[Si](C)(C)C(C)(C)C)n3)ccc2C(=O)NS(=O)(=O)c2ccccc2)C(C)(C)C1", "note": "[Compound 2-15, N-(Benzenesulfonyl)-6-[3-[[tert-butyl(dimethyl)silyl]methoxy]pyrazol-1-yl]-2-[(4S)-2,2,4-trimethylpyrrolidin-1-yl]pyridine-3-carboxamide]", "CFTR Modulating Activity": "Active"}
{"compound": "C[C@@H]1CN(c2nc(-n3ccc(OCC(C)(C)C(F)(F)F)n3)ccc2C(=O)NS(=O)(=O)c2cccc([Si](C)(C)C)c2)C(C)(C)C1", "note": "[Compound 2-16, 6-[3-(3,3,3-trifluoro-2,2-dimethyl-propoxy)pyrazol-1-yl]-2-[(4S)-2,2,4-trimethylpyrrolidin-1-yl]—N—(3-trimethylsilylphenyl)sulfonyl-pyridine-3-carboxamide]", "CFTR Modulating Activity": "Active"}
{"compound": "C[C@@H]1CN(c2nc(-n3ccc(OCCC4(C(F)(F)F)CC4)n3)ccc2C(=O)NS(=O)(=O)c2cccc([Si](C)(C)C)c2)C(C)(C)C1", "note": "[Compound 2-17, 6-[3-[2-[1-(Trifluoromethyl)Cyclopropyl]Ethoxy]Pyrazol-1-yl]-2-[(4S)-2,2,4-trimethylpyrrolidin-1-yl]-N-(3-trimethylsilylphenyl)Sulfonyl-pyridine-3-carboxamide]", "CFTR Modulating Activity": "Active"}
{"compound": "C[C@@H]1CN(c2nc(-n3ccc([Si](C)(C)C)n3)ccc2C(=O)NS(=O)(=O)c2ccccc2)C(C)(C)C1", "note": "[Compound 2-18, N-(benzenesulfonyl)-2-[(4S)-2,2,4-trimethylpyrrolidin-1-yl]-6-(3-trimethylsilylpyrazol-1-yl)pyridine-3-carboxamide]", "CFTR Modulating Activity": "Active"}
